Calls of active or inactive are those of the source. The calls are words filed in the database; no cut-off is given here.
Experiments:
Paracentrotus lividus [1] = assay: Microtubule destabilizing activity in sea urchin free-swimming blastula assessed as embryo spinning treated at 9 to 10 hrs post-fertilization measured after 0.15 to 15 hrs; format: functional
Paracentrotus lividus [2] = assay: Antimitotic activity in sea urchin fertilized egg assessed as cleavage arrest treated at 8 to 20 mins post-fertilization measured at 2.5 to 5.5 hrs post-fertilization; format: functional
Paracentrotus lividus [3] = assay: Antimitotic activity in sea urchin fertilized egg assessed as cleavage alteration treated at 8 to 20 mins post-fertilization measured at 2.5 to 5.5 hrs post-fertilization; format: functional
Paracentrotus lividus [4] = assay: Microtubule destabilizing activity in sea urchin free-swimming blastula assessed as embryo spinning up to 4 uM treated at 9 to 10 hrs post-fertilization measured after 0.15 to 15 hrs; format: functional, organism-based

Row | SMILES | EC (Paracentrotus lividus [1]) [µM] | EC (Paracentrotus lividus [2]) [µM] | EC (Paracentrotus lividus [3]) [µM] | Activity (Paracentrotus lividus [4])
1 | COc1ccc(-c2onc(NC(C)=O)c2-c2ccc(OC)cc2)cc1 | >4 | >4 | >4 | –
2 | COc1ccc(/C=C\c2cc(OC)c3c(c2)OCO3)cc1O [Combretastatin A-2] | 0.05 | 0.01 | 0.002 | –
3 | COc1ccc(-c2c(N)noc2-c2cc(OC)c3c(c2)OCCO3)cc1 | 0.5 | 0.02 | 0.005 | –
4 | COc1ccc(-c2c(NC(C)=O)noc2-c2cc(OC)c(OC)c(OC)c2)cc1 | >4 | >4 | >4 | –
5 | COc1ccc(-c2c(NC(C)=O)noc2-c2cc3c(c(OC)c2OC)OCO3)cc1 | >4 | >4 | >4 | –
6 | COc1ccc(-c2c(NC(C)=O)noc2-c2cc(OC)c3c(c2OC)OCO3)cc1 | >4 | >4 | >4 | –
7 | COc1ccc(-c2c(NC(C)=O)noc2-c2cc(OC)c3c(c2)OCCO3)cc1 | >4 | >4 | >4 | –
8 | COc1ccc(-c2onc(NC(C)=O)c2-c2ccc([N+](=O)[O-])cc2)cc1 | >4 | >4 | >4 | –
9 | COc1ccc(-c2c(-c3ccccc3)noc2N)cc1OC | 10 | 10 | 0.5 | –
10 | COc1ccc(-c2onc(NC(C)=O)c2-c2ccc(Cl)cc2)cc1 | >4 | >4 | >4 | –
11 | COc1ccc(-c2noc(N)c2-c2ccc(Cl)cc2)cc1 | >4 | >4 | >4 | –
12 | COc1ccc(CCc2noc(-c3cc(OC)c4c(c3)OCCO4)n2)cc1 | – | – | – | inactive
13 | COc1ccc(Cc2noc(-c3cccc(OC)c3)n2)cc1 | – | – | – | inactive
14 | COc1ccc(-c2onc(N)c2-c2cc3c(c(OC)c2OC)OCO3)cc1 | >4 | >4 | 4 | –
15 | COc1ccc(Cc2noc(-c3cc(OC)c(OC)c(OC)c3)n2)cc1 | – | – | – | inactive
16 | COc1ccc(Cc2noc(-c3cc(OC)c4c(c3)OCO4)n2)cc1 | – | – | – | inactive
17 | COc1ccc(-c2c(NC(C)=O)noc2-c2cc(OC)c3c(c2)OCO3)cc1 | >4 | >4 | >4 | –

From ChEMBL document CHEMBL3112491, “3-(5-)-Amino-o-diarylisoxazoles: regioselective synthesis and antitubulin activity” (2014)
